The values below are quoted from earlier work in patent publication US20040247544A1, “Use of dialkyl sulphones in cosmetic nailcare compositions for promoting growth of the nails” (L'OREAL, priority 2002, published 2004).

Series [1] deals with nails. The note with it: oral ingestion, aqueous 5% solution, dogs.
Series [2] concerns nails.

Like-named read-outs stand apart in the source and are kept apart here.

In the case of `CS(C)(=O)=O` [MSM, methylsulphonylmethane], the “growth of the nails” value in series [1] is “promotes and stimulates the growth of the nails”. Further, in series [2] (aqueous formulation containing 10% MSM and 50% water, applied to the nails with cotton wool, left to act for 15 minutes), the “strength and brittleness of the nails” value is “strong and less brittle”. Also, the “brittleness of the nails” value in series [2] (nail-varnish removers: standard varnish solvent with 5 to 10% of MSM) and in series [2] (solvent-based (ethyl acetate or amyl acetate) varnish containing 5% by weight of MSM) was “less brittle” in each case.
